Results taken from patent publication US20150352134A1, “COMPOSITION FOR TOPICAL SKIN APPLICATION CONTAINING GINSENOSIDE F2 DERIVED FROM HYDROPONIC GINSENG” (AMOREPACIFIC CORPORATION, priority 2012, published 2015).

Assays:
tyrosinase [1] = experiment: Tyrosinase inhibitory effect; format: biochemical, mushrooms; settings: 37° C., absorbance 475 nm
Method: The tyrosinase as used herein is an enzyme extracted from mushrooms and purchased from Sigma-Aldrich. Firstly, tyrosine as a substrate is dissolved in distilled water to prepare a 0.3 mg/mL solution, which is added dropwise to a test tube at an amount of 1.0 mL each time. To the solution are added 1.0 mL of a potassium phosphate buffer solution (0.1 mol, pH 6.8) and 0.7 mL of distilled water.
0.2 mL of the sample solution is added to the reactant solution and then allowed to have a reaction in a thermostat container at 37° C. for 10 minutes. In this regards, the control is the reactant solution containing 0.2 mL of a solvent alone in place of each sample solution. The positive control uses ascorbic acid. 0.1 mL of a 2500 unit/mL tyrosinase solution is added to the reactant solution, which is then allowed to have a reaction again in a thermostat container at 37° C. for 10 minutes. The test tube filled with the reactant solution is put into an ice water to cause quenching and thus stop the reaction. The absorbance at 475 nm is measured with a photoelectric spectrophotometer. The tyrosinase inhibitory effect is calculated according to the following mathematical formula 3.

elastase type III = molecular target: T1, elastase type III (Sus scrofa, UniProt P00772); experiment: Elastase inhibitory effect; format: biochemical; settings: EGCG 250 μM; 25° C., 15 minutes, absorbance 415 nm
T1 construct: purchased Sigma-Aldrich E0127
T1 sequence (P00772 27-266): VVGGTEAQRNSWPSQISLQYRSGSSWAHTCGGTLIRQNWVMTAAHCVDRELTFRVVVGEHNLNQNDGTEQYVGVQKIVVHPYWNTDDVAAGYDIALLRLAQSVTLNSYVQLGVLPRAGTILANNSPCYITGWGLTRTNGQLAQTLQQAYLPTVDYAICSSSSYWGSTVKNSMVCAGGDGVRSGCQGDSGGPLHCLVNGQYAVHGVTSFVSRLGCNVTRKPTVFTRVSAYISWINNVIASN
Method: The elastase inhibitory function of the ginsenoside F2 is measured in comparison with that of EGCG. The elastase and the substrate used herein are purchased from Sigma-Aldrich, U.S.A. (Cat. No. E0127).
The elastase inhibitory function is measured according to the following method.
In a 96-well plate, ginsenoside F2 (200 μL) and 50 μL of a 20 μg/mL elastase type III solution are mixed with a […] tris-HCL buffer solution (pH 8.0). The positive control is EGCG 250 μM, and the negative control which is a non-treated group is distilled water. Then, 100 μL of 0.4514 mg/mL N-succinyl-ala-ala-ala-p-nitroanilide prepared with the buffer solution is added to the mixture and allowed to react at 25° C. for 15 minutes. After completion of the reaction, the absorbance at 415 nm was measured. The blank test is performed in the same manner as described above to achieve calibration verification.
The elastase inhibitory function is calculated according to the following mathematical formula 1, and the results are presented in Table 2.
Elastase inhibition rate (%)={1−(C−D)/(A−B)}×100 [Mathematical Formula 1]
A: Absorbance at 415 nm with enzyme and no test substance.
B: Absorbance at 415 nm with no test substance and no enzyme.
C: Absorbance at 415 nm with test substance and enzyme.
D: Absorbance at 415 nm with test substance and no enzyme.

[2] = system: mouse with vitiligo (C57b1/6-Mitf^mi-vit); experiment: Grey hair prevention: melanin in newly grown hair of mouse with vitiligo; format: in vivo; settings: applied twice a day, about 3 weeks, 50 mM IBMX, 2.5% ginsenoside F2
Method: A mouse with vitiligo (C57b1/6-Mitf^mi-vit) is purchased from The Jackson Lab in U.S.A. The testing method on the grey hair inhibitory effect using a mouse with lots of grey hair is carried out as follows. A 12-week old mouse is subjected to depilation on the back side. The area of the depilated region is controlled to be the same to every object. From the next day of the depilation, the grey hair inhibitory substances are applied on the depilated region twice a day. The vehicle for the grey hair inhibitory substances is the mixture of EtOH, 1,3-BG and DW (3:2:5 in volume ratio). The liquid containing the vehicle alone is the negative control, the liquid containing the vehicle in combination with 50 mM IBMX is the positive control, and the liquid containing the vehicle in combination with 2.5% ginsenoside F2 is the test group. When the difference in the grey hair inhibitory effect between the substances is visually recognizable in about 3 weeks, the newly grown hair is collected to measure the quantity of melanin produced in the hair. The quantity of melanin in the hair is measured using esperase (Novozyme) strains that are a protein hydrolase. Esperase is dissolved in a buffer solution (50 mM tris-HCl, 5 mM DTT, pH 9.3) to a concentration of 1 NPU/ml to prepare a reaction buffer. 5 mg of mouse hair is put in 1 ml of the reaction buffer, which is stirred at a speed of 1,000 rpm at 37° C. for 13 hours to cause the reaction and then subjected to a momentary centrifugal isolation to separate the reactant solution from hair. The reactant solution thus obtained is placed in each well of a 96-well plate, and the absorbance at 405 nm is measured to determine the amount of melanin in the reactant solution. When a mouse with vitiligo and lots of grey hair is treated with the negative control substance, the positive control substance, or the test substance, the efficacies are visually observed, and the melanin in hair is quantitatively analyzed.

MITF = MITF expression in melanocytes (Western Blot); format: cell-based; settings: 501me1 cell line, IBMX 100 μM, ginsenoside 10 ppm
Method: (§1) 501me1 cell line is injected in each well of a 6-well microtiter plate at a rate of 500,000 cells/well. The cell line in each well is treated with 0.1% of DMSO as the negative control group, 100 μM of IBMX as the positive control group, or ginsenoside 10 ppm of F2 as the test group, and cultured at 37° C. for 24 hours, 48 hours, or 72 hours, to obtain proteins. The proteins thus obtained are subjected to Western Blot using MITF and tyrosinase antibodies. Protein extraction and Western Blot are performed using the standard methods known in the art.

Melanin-a cells = experiment: Melanogenesis promotion in Melanin-a cells; format: cell-based; settings: 100 μM, 3 days; DMSO (0.1%) = 100
Method: Melanin-a cells are injected in a 24-well microtiter plate at a rate of 50,000 cells per well with an RPMI medium containing 5% fetal bovine serum, 100 IU penicillin G, and 0.2 μM TPA. Next day, the cells are treated with ginsenoside F2 as a test substance independently at the final concentration of 10 ppm or 50 ppm. The negative control is treated with 0.1% DMSO, and the positive control is treated with 100 μM IBMX. Then, the cells are cultured at 37° C. for 3 days. The wells of the plate are washed with PBS, and 100 μl of 1N NaOH is added to each well to dissolve melanin in the cells. The absorbance of the dissolved melanin is measured at 405 nm with a microplate reader. The effect of the ginsenoside F2 to promote melanogenesis is evaluated in comparison with that of the control groups.

tyrosinase [3] = experiment: Tyrosinase expression in melanocytes (Western Blot); format: cell-based; settings: 501me1 cell line, IBMX 100 μM, ginsenoside 10 ppm
Method: as §1

B16/F10 melanoma cells = experiment: Melanogenesis inhibition in B16/F10 melanoma cells; format: cell-based; settings: sample containing 0.001 wt. % of test substance; 3-day cultivation
Method: As a test substance, a sample containing 0.001 wt. % of ginsenoside F2 or kojic acid is added to a culture medium of B16/F10 melanoma cells (available from Korean Cell Line Bank) at a predetermined concentration. The culture medium is eliminated after 3-day cultivation. The cells are washed with PBS and dissolved in 1N NaOH. Then, the absorbance at 405 nm is measured. The control is the cells not treated with any test substance. In comparison with the melanin content in the control group, the inhibitory ability of each test substance against melanogenesis is measured. […] [formula]

[4] = system: potassium ion channels (KATP channels); experiment: KATP channel opener test: recovery of NIH3T3 proliferation blocked by tolbutamide (WST-1); format: cell-based, mouse; settings: 10 μM minoxidil after 2.5 mM tolbutamide, 48 hours
From the text: Minoxidil, a treatment for hair loss, is known as a potassium ion channel opener (KATP channel opener) potentially acting on mitochondria and a representative drug used for treatment of androgenic alopecia (hair loss). A testing method used to evaluate the action of minoxidil includes treating with tolbutamide (SIGMA-ALDRICH, T0891) blocking the potassium ion channels (KATP channels) in fibroblasts constituting the corium of scalp to inhibit cell proliferation and then opening the potassium ion channels (KATP channels) to resume the cell proliferation. In order to evaluate the function of the composition of the present invention as a KATP channel opener, the present invention uses a mouse embryonic fibroblast cell line, NIH3T3, as fibroblasts. The cell line is obtained by naturally immortalizing a fibroblast cell line isolated from an NIH Swiss mouse embryo with 3T3 protocol. The cell line is cultured with DMEM (Dulbecco's modified eagle's medium, Gibco BRL, Gaithersburg, Md., U.S.A.) containing 10% FBS (Fetal Bovine Serum) in an incubator under the conditions of 5% CO2 and 37° C. for 24 hours.

5α-reductase = molecular target: T2, 5α-reductase (Homo sapiens, UniProt P31213); experiment: 5α-reductase activity inhibition, conversion of [14C]testosterone to DHT in HEK293-5α R2 cells; format: cell-based; settings: 2 hours
T2 construct: 3×FLAG; expressed in transfected cells; host or cells: HEK293
T2 sequence (P31213 1-254): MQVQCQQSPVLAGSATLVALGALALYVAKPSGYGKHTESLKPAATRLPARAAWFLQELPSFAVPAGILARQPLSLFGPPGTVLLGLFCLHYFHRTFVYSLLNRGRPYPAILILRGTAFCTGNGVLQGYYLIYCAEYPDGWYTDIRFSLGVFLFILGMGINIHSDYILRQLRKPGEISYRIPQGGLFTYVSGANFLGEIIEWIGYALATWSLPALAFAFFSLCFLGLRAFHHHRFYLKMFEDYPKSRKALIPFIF
Method: In order to evaluate the inhibitory effect on the activity of 5α-reductase, the conversion rate from [^14C]testosterone to [^14C]dihydrotestosterone (DHT) in HEK293-5α R2 cells is measured. P3×FLAG-CMV-5α R2 is transduced into HEK293 cells, which are cultured in a 24-well plate at a rate of 2.5×10^5 cells per well (Park et al., 2003, JDS. Vol. 31, pp. 191-98). The next day, the used culture medium is replaced with a new culture medium containing an enzyme substrate and an inhibitor. The substrate of the culture medium is 0.05 μCi [^14C]testosterone (Amersham Pharmacia Biotech, UK).
To evaluate the degree of 5α-reductase activity inhibition, the cells are treated with ginsenoside F2 and then cultured in a 5% CO2 incubator at 37° C. for 2 hours. In this regard, the negative control is the group not treated with ginsenoside F2, while the positive control is the group treated with finasteride. Subsequently, the culture medium is collected to extract steroids with 800 μl of ethylacetate, and the supernatant organic solvent phase is isolated and dried. The residue is dissolved in 50 μl of ethylacetate and developed on silica plastic sheet kieselgel 60 F254 using an ethylacetate-hexane (1:1) solvent.
The plastic sheet is dried out in the air and measured in regards to the abundance of isotope using a bath system. The dry plastic sheet together with an X-ray film is put in a bath cassette. After one week, the abundance of isotope of testosterone and dihydrotestosterone remaining on the film is measured to calculate the conversion rate and the inhibition rate according to the following mathematical formulas 5 and 6, respectively.

collagenase (MMP-1) = experiment: Collagenase (MMP-1) expression in human fibroblasts (ELISA); format: cell-based; settings: 10 μg/mL for 24 hours; not treated control = 100
Method: The ginsenoside F2 of the present invention is measured in regards to the inhibitory effect on the generation of collagenase in comparison with retinoic acid. […] The human fibroblasts are treated with ginsenoside F2 or retinoic acid at a concentration of 10 μg/mL for 24 hours. Then, the cell culture medium is collected. The production yield of collagenase in the collected cell culture medium is measured using a collagenase measurement instrument commercially available (Catalog #. RPN 2610, USA Amersham Pharma Inc.). Firstly, the collected cell culture medium is put in each well of a 96-well plate uniformly coated with the primary collagenase antibodies and then subjected to antigen-antibody reactions in a thermostat container for 3 hours. After 3 hours, the secondary collagenase antibodies coupled to the chromophore groups are put in each well of the 96-well plate and then allowed to react for more 15 minutes. […] The intensity of yellowness in the reaction mixture is varied depending on the progress of the reaction. The absorbance of the yellow-colored 96-well plate is measured at 405 nm with a spectrophotometer, and the expression level of collagenase is calculated according to the following mathematical formula 2. In this regard, the absorbance of the cell culture medium collected from the group not treated with the composition of the present invention is considered as the absorbance of the control. [formula]

[5] = system: procollagen type (I) in fibroblasts; experiment: Collagen biosynthesis in fibroblasts (procollagen type (I) ELISA); format: cell-based; settings: 10 ng/ml, 24 hours; non-treated group = 100%
Method: The ginsenoside F2 of the present invention is compared with TGF-β in regards to the effect of promoting biosynthesis of collagen. Firstly, fibroblasts are seeded in 24 wells at a rate of 10^5 per well and cultured until the growth reaches 90%. The fibroblasts are cultured in a non-serum culture medium for 24 hours, treated with each 10 ng/ml of ginsenoside F2 or TGF-β dissolved in the non-serum culture medium, and then cultured in a CO2 incubator for 24 hours. The supernatant liquid is collected to determine an increase or decrease of procollagen using a procollagen type (I) ELISA kit. The collagen synthesis ability is denoted with respect to 100% for the non-treated group.

With `O=C1O[C@H]([C@@H](O)CO)C(O)=C1O` [Ascorbic acid, ascorbic acid] the “Tyrosinase inhibition rate (%)” value (tyrosinase [1]) was 52%.

`O=C(O[C@@H]1Cc2c(O)cc(O)cc2O[C@@H]1c1cc(O)c(O)c(O)c1)c1cc(O)c(O)c(O)c1` [EGCG] was tested, and the “Inhibition rate (%) (elastase)” value (elastase type III) was 65%.

In the case of `CC(C)Cn1c(=O)n(C)c(=O)c2[nH]cnc21` [IBMX], the “Amount of melanin (%) with respect to control” value [2] is reported as 105.9%, the “MITF (Western Blot, in comparison with 100 of the negative control group)” value (“MITF” below) (MITF; 24 hrs) is reported as 121 and the “MITF” value (MITF; 48 hrs) is reported as 98. The “MITF” value (MITF; 72 hrs) was 224, the “Yield of Melanin (%)” value (Melanin-a cells) was 120% and the “Tyrosinase (Western Blot, in comparison with 100 of the negative control group)” value (tyrosinase [3]; 24 hrs) was 160. The “Tyrosinase (Western Blot, in comparison with 100 of the negative control group)” value (tyrosinase [3]; 48 hrs) was 149 and the “Tyrosinase (Western Blot, in comparison with 100 of the negative control group)” value (tyrosinase [3]; 72 hrs) was 298.

In the case of `O=c1cc(CO)occ1O` [Kojic acid, kojic acid], the “Melanogenesis inhibition rate (%)” value (B16/F10 melanoma cells) is reported as 53%.

With `Nc1cc(N2CCCCC2)nc(N)[n+]1[O-]` [Minoxidil] the “Cell proliferation ability (%)” value [4] was 132%.

For `CC(C)(C)NC(=O)[C@H]1CC[C@H]2[C@@H]3CC[C@H]4NC(=O)C=C[C@]4(C)[C@H]3CC[C@]12C` [Positive control, finasteride, reference compound], the “Inhibition rate (%)” value (5α-reductase; 5α-reductase activity) was 42.5% and the “Conversion rate (%)” value (5α-reductase; testosterone to dihydrotestosterone) was 27.6%.

`CC1=C(/C=C/C(C)=C/C=C/C(C)=C/C(=O)O)C(C)(C)CCC1` [Retinoic acid, retinoic acid] was tested, and the “Collagenase expression level(%)” value (collagenase (MMP-1)) was 75%.

For TGF-β, the “Collagen synthesis ability (%)” value [5] was 183.5%.
